“Also recorded” adds a separate entry of the source.
Legend:
[1] = tested on: MED1 condensates at MYC in MCF7 cells; assay: Immunofluorescence with DNA FISH, MED1 condensates at the MYC oncogene; assay type: cell-based, human; settings: estrogen-starved MCF7 treated with estrogen or estrogen and tamoxifen
Procedure: MCF7 cells were grown in estrogen-free DMEM for 3 days on Poly-L-ornithine coated coverslips in 24 well plates at an initial seeding density of 50,000 cells per well. Cells were then treated with vehicle, 10 uM estradiol, or 10 uM estradiol and 5 uM 4-hydroxytamoxifen for 45 minutes.
Cells on cover slips were then fixed in 4% paraformaldehyde. Immunofluorescence was performed as described above. After incubating the cells with the secondary antibodies, cells were washed three times in PBS for 5 min at RT, fixed with 4% PFA in PBS for 10 min and washed three times in PBS. Cells were incubated in 70% ethanol, 85% ethanol and then 100% ethanol for 1 minute at RT. Probe hybridization mixture was made mixing […], of FISH Hybridization Buffer (Agilent G9400A), 1 μl of FISH probes (SureFISH 8q24.21 MYC 294 kb G101211R-8) and 2 μL of water.
5 μL of mixture was added on a slide and coverslip was placed on top (cell-side toward the hybridization mixture). Coverslip was sealed using rubber cement. Once rubber cement solidified, genomic DNA and probes were denatured at 78° C. for 5 minutes and slides were incubated at 16° C. in the dark O/N. The coverslip was removed from slide and incubated in pre-warmed Wash Buffer 1 (Agilent, G9401A) at 73° C. for 2 minutes and in Wash Buffer 2 (Agilent, G9402A) for 1 minute at RT. […]

ERα point mutations = settings: reference (52); cited from earlier work
MED1 droplets = biological target: T1, MED1 droplets (Homo sapiens, UniProt Q15648); assay: In vitro droplet drug chase out experiment; assay type: binding; settings: 100 μM FLTX1, 10-fold excess (1 mM) tamoxifen
T1 construct: MED1—amino acids 600-1581; 6xHis (N); made in house; host or cells: LOBSTR cells (E. coli)
T1 sequence (Q15648 600-1581): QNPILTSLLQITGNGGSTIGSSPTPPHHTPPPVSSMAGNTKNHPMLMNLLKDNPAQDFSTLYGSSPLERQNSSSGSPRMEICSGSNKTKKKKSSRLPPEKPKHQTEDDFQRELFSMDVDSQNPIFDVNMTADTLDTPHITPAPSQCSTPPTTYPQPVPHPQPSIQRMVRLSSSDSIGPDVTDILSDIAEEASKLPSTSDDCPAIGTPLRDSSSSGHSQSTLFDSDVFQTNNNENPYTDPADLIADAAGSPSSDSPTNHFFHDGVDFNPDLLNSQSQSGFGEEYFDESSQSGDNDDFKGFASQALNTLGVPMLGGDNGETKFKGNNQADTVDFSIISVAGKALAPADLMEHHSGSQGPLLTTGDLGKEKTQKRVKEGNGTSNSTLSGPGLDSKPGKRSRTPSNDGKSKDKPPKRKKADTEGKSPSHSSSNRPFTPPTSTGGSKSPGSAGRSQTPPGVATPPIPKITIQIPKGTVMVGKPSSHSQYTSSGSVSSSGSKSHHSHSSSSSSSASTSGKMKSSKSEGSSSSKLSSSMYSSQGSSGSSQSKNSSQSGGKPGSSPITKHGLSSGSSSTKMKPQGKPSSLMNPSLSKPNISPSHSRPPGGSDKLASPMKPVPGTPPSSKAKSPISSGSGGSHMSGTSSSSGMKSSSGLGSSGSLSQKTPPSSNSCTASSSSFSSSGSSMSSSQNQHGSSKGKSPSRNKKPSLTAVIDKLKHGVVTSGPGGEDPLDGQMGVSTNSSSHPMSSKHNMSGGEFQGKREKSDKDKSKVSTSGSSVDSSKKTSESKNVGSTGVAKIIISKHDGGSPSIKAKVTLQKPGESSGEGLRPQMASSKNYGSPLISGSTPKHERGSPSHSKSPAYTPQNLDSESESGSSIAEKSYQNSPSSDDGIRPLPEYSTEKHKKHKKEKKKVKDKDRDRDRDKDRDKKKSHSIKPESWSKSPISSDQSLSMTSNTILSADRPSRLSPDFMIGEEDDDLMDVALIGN
Procedure: For chase-out experiments 5 μM labeled cisplatin-TR was added to a MED1 droplets reaction (10 μM MED1, 50 mM Tris-HCl pH 7.5, 10% glycerol, 1 mM DTT, 10% PEG) in order to form MED1 droplets concentrated with Cisplatin-TR. Unlabeled transplatin or unlabeled cisplatin (vehicle, 10 μM, 100 μM, or 500 μM) were added to the droplet mixture and the amount of labeled cisplatin-TR remaining in the droplet is measured after chase out. 100 μM fluorescent FLTX1 was added to a MED1 droplets reaction (10 μM MED1, 50 mM Tris-HCl pH 7.5, 10% glycerol, 1 mM DTT, 10% PEG) in order to form MED1 droplets concentrated with FLTX1.

[2] = tested on: ERα-MED1 condensate at the Lac array in U2OS cells; assay: Lac array assay with tethered ER, MED1 immunofluorescence; assay type: cell-based, human; settings: for effect on ER/MED1 condensate at the Lac array: tethered ER, estrogen
From the text: When the transcriptional apparatus is recruited to that site a mediator condensate is detectable by immunofluorescence (Middle) U20S-Lac cells were transfected with a construct expressing the Lac DBD fused to the ER LBD and GFP+/− a construct overexpressing MED1. […] (Right) Quantification of MED1 enrichment relative at the Lac array, error bars represent SD.
Constructs were assembled by NEB HIFI cloning in pSV2 mammalian expression vector containing an SV40 promoter driving expression of a mCherry-LacI fusion protein. The intrinsically disordered region of MED1, HP1α, or the activation domain of ESR1 was fused by the c-terminus to this recombinant protein, joined by the linker sequence […] (SEQ ID NO: 16). For experiments comparing FLTX1 enrichment at the array, U20S-Lac cells were plated onto chambered coverglass (1.5 Borosilicate Glass, Nunc Lab-Tek, 155409) and transfected with either MED1 IDR or HP1α constructs with lipofectamine 3000 (Thermofisher L3000015). After 24 hours, cells were treated with either 1 uM FLTX1 or vehicle (DMF). After 30 minutes, cells were imaged on the Zeiss LSM 880 confocal microscope with Airyscan detector with 63× objective at 37° C. For experiments with high MED1, cells grown in DMEM were plated on glass coverslips and transfected using lipofectamine 3000 (Thermofisher L3000015). A construct with a mammalian expression vector containing a PGK promoter driving the expression of MED1 fused to GFP was co-transfected in high MED1 conditions. […]
For analysis of Lac array data comparing MED1 or HP1α tethered, a region of interest was called using the signal in the Lac array (561 channel). The average fluorescent signal for FLTX1 (488 channel) was then measured in the region of interest and divided by the average fluorescence in the region of interest at the Lac array. […] For analysis of Lac array data for MED1 overexpression, enrichment was calculated by dividing the average fluorescent signal for MED1 immunofluorescence at the region of interest, defined by the ER tethered at the lac array, by MED1 immunofluorescence signal at a random nuclear region.

[3] = tested on: patient-derived ERα mutants and MED1; assay: In vitro droplet assay of patient-derived ERα mutants with MED1; assay type: biochemical, human; settings: 100 μM estrogen, 100 μM tamoxifen

In the case of CC/C(=C(\c1ccccc1)c1ccc(OCCN(C)C)cc1)c1ccccc1 [tamoxifen], the “MED1 condensates at the MYC oncogene” value [1] is given as “reduces these; also recorded: not in the absence of estrogen or in the presence of estrogen and tamoxifen”, the “reduction of affinity for tamoxifen by ERα point mutations” value (ERα point mutations) is given as “approximately 10 fold” and the “chase out of FLTX1 from MED1 droplets” value (MED1 droplets) is given as “diluted out”. For the same compound, the “chase out of FLTX1 from MED1 droplets” value (MED1 droplets; listed as Tamoxifen) was “able to chase-out FLTX1”, the “effect on ERα-MED1 condensate at the Lac array when MED1 is overexpressed” value ([2]; MED1 overexpressed) was “unable to dissociate the ERα-MED1 condensate” and the “effect on ER/MED1 condensate at the Lac array” value [2] was “eliminated by tamoxifen”. The “effect on ER/MED1 condensate at the Lac array” value ([2]; listed as Tamoxifen) was “reduced ER (green) and MED1 (red) containing condensates” and the “disruption of ERα mutant/MED1 condensates” value [3] was “not disrupted”.

From patent US20220390432A1, “METHODS OF CHARACTERIZING AND UTILIZING AGENT-CONDENSATE INTERACTIONS” (Whitehead Institute for Biomedical Research, priority 2019, published 2022)
